The values that follow come from article PMC5623190, “Target Identification of Mycobacterium tuberculosis Phenotypic Hits Using a Concerted Chemogenomic, Biophysical, and Structural Approach” (Frontiers in Pharmacology, 2017).

In brackets after ≈: the same amount, converted by molar mass. Several values for one entry are separate records, joined by “and”; a condition that tells them apart may be missing. Identical values can stand only once. Like-named read-outs stand apart in the source and are kept apart here.

In one experiment the target is M. tuberculosis EthR (Mycobacterium tuberculosis, UniProt P9WMC1). As to the kind of experiment: Surface plasmon resonance assay of EthR binding to ethA promoter DNA. To be noted: for LE (ligand efficiency): ligand efficiency for EthR inhibition. The method, then: The surface plasmon resonance (SPR) assay was performed on a BIAcore T100 with a protocol similar to what was previously described (Surade et al., [2014]). […] For the initial screening a single run was performed for each compound. A 2 μM EthR solution was then incubated individually with each of the compounds at 100 μM, in 2 mM MgCl2, 10 mM TRIS/HCL pH 7.5, 200 mM NaCl, 0.1 mM EDTA, and 2% DMSO and flowed over the chip at 20 μl/min for 120 s. For dissociation 150 s were given using the same flow rate. Binding was determined by subtracting the response of the control channel from the experimental channel at steady-state. Regeneration of the chip was performed between samples by flowing 0.03% SDS in running buffer for 60 s at 20 μl/min. […] Data were analyzed in Prism 5 (Graphpad software) and IC50 were calculated using a non-linear regression model. Dose response experiments were performed in triplicate.

Experiment [1] deals with Mycobacterium tuberculosis H37Rv. On the set-up: method as in Ballell et al., 2013. The settings on record: M. tuberculosis whole cell; ref Ballell et al., 2013; cited from earlier work.
The target in a further experiment is InhA (Mycobacterium tuberculosis, UniProt P9WGR1). The experiment is described as follows: InhA spectrophotometric enzymatic assay (NADH oxidation, 2-trans-octanoyl-CoA). The settings on record: compound at 100 μM, 100 nM InhA, triplicate. Type of experiment: biochemical. The method, then:
InhA activity was assessed by a spectrophotometric assay that followed the oxidation of NADH at λ = 340 nm in the presence of 2-trans-octanoyl-CoA. Compounds were dissolved in 100% DMSO. The enzyme reaction contains 30 mM PIPES pH 7.5, 50 mM NaCl, 1% (v/v) DMSO and 0.1 mM EDTA. InhA (100 nM) was pre-incubated for 10 min at room temperature with 0.25 mM NADH and compounds at a final concentration of 100 μM in 150 μl reaction volume. The reaction is started by the addition of 2-trans-octanoyl-CoA at a final concentration of 1.5 mM, prepared as described previously (He et al., [2006]). The reactions were followed for 20 min using a spectrophotometer plate reader (CLARIOstar—BMG LABTECH). Inhibition percentage was calculated based on the initial rates of reaction. All experiments were performed in triplicate.

Where [2] appears, read: inhibition of EthR binding to ethA promoter DNA.
[3] abbreviates: IC50, SPR dose response 0.78-100 μM, triplicate, table head prints no unit, μM.
[4] abbreviates: SPR dose response 0.78-100 μM, triplicate, table head prints no unit, μM, read-out: IC50.

M. tuberculosis EthR, sequence (P9WMC1 whole entry, looked up): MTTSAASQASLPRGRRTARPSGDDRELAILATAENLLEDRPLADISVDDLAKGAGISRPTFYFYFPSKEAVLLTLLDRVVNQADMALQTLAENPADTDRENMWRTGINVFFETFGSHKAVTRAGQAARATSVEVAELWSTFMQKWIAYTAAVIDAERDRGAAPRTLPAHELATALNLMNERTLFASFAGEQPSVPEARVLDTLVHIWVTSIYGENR
InhA, sequence (P9WGR1 whole entry, looked up): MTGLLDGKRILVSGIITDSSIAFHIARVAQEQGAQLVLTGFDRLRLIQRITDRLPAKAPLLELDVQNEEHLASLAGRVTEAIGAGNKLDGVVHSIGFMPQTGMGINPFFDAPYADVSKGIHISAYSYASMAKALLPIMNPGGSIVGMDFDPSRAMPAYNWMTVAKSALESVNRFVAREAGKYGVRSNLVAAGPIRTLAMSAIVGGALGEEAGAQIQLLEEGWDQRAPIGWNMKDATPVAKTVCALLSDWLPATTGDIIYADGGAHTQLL

As to `Br.CC1(C)NC(N)=NC(=N)N1OCCCOc1ccc(Cl)cc1Cl` [BRL-51091am], the “SPR Inhibition (%)” value at M. tuberculosis EthR (setting [2]) is 41%.

With `O=C(NC1=NCCS1)c1sc2cc(F)ccc2c1Cl` [Compound 1], at M. tuberculosis EthR, the inhibition at 100 µM came out at 100% and the “LE (ligand efficiency)” value is on record as 0.35. For the same molecule, the IC50 on M. tuberculosis EthR (setting [3]) was ~12 µM and 12 µM. The “MIC” value in experiment [1] was 8.6 µM (≈ 2.71 µg/mL).

For the molecule `O=C(Cc1ccc(F)cc1)Nc1nc(-c2ccccn2)cs1` [Compound 2], on M. tuberculosis EthR, 100 µM produced 100% inhibition and the “LE (ligand efficiency)” value is reported as 0.31. This molecule returned an IC50 on M. tuberculosis EthR (setting [3]) of 9.9 µM. Besides, the minimum inhibitory concentration (MIC) in experiment [1] is 9.3 µM (≈ 2.91 µg/mL).

Regarding `O=C(C1CCN(c2nnc(-n3cccc3)s2)CC1)N1CCC(Cc2ccccc2)CC1` [Compound 3], at M. tuberculosis EthR, the inhibition at 100 µM was determined as 100% and the “LE (ligand efficiency)” value came to 0.24. Also, the IC50 on M. tuberculosis EthR (setting [3]) was determined as 3.9 µM. Besides, the “MIC” value in experiment [1] was 4.2 µM (≈ 1.83 µg/mL).

On to `c1ccc(-c2csc(Nc3nc4cc5c(cc4s3)OCO5)n2)nc1` [Compound 4], for which the IC50 on M. tuberculosis EthR (setting [4]) is ~13 µM and 13 µM. The “Inhibition (100 μM) (%)” value on M. tuberculosis EthR (SPR, inhibition of EthR binding to DNA, compound at 100 μM, 2 μM EthR, single run) is reported as 100%. Besides, the “LE (ligand efficiency)” value at M. tuberculosis EthR is 0.28. The “MIC” value in experiment [1] was 2.7 µM (≈ 0.957 µg/mL).

Regarding `Clc1ccc(Nc2nc(-c3ccccn3)cs2)nc1` [Compound 5], the inhibition at 100 µM at M. tuberculosis EthR was 99%. Besides, the “MIC” value in experiment [1] is 5.9 µM (≈ 1.7 µg/mL).

On to `Fc1ccc2nc(Nc3nc(-c4ccccn4)cs3)sc2c1` [Compound 6], for which, on M. tuberculosis EthR, the inhibition at 100 µM was found to be 97% and the “LE (ligand efficiency)” value turned out to be 0.30. At M. tuberculosis EthR (setting [3]), this molecule gave an IC50 of 22 µM. For the same molecule, in experiment [1], the “MIC” value was 2.3 µM (≈ 0.755 µg/mL).

In the case of `O=C(COc1cccc(F)c1)Nc1nc(-c2ccccn2)cs1` [Compound 7], at M. tuberculosis EthR, 100 µM produced 93% inhibition and the “LE (ligand efficiency)” value came to 0.26. Further, the IC50 on M. tuberculosis EthR (setting [4]) was found to be 50 µM.

Take `CCc1ccc(Nc2nnc(SCc3cc(C)on3)s2)cc1` [Compound 8]: the inhibition at 100 µM at M. tuberculosis EthR was 92.8%; against InhA it was greater than 40%. In addition, the “MIC” value in experiment [1] is 2.8 µM (≈ 0.931 µg/mL).

In turn, `CSc1ccc(C(=O)Nc2nc(-c3ccccn3)cs2)cc1` [Compound 10] showed an inhibition at 100 µM at M. tuberculosis EthR of 74%. Further, the “MIC” value in experiment [1] was 8.7 µM (≈ 2.85 µg/mL).

In the case of `Nc1ccccc1Nc1ccc2c(c1)OCO2` [Compound 12], the inhibition at 100 µM on M. tuberculosis EthR came out at 67%. Also, on M. tuberculosis EthR (SPR IC50 (µM), inhibition of EthR binding to ethA promoter DNA), the IC50 was greater than 100 µM. In addition, the “MIC” value in experiment [1] was 1.8 µM (≈ 0.411 µg/mL).

As to `N=C(Nc1nc(-c2ccccn2)cc2ccccc12)c1cccc(Cl)c1` [GSK381407a], at M. tuberculosis EthR (setting [2]), the “SPR Inhibition (%)” value is given as 59%.

`CCCCS(=O)(=O)Nc1ccc2cnn(C)c2c1` [GSK3011724a]: at M. tuberculosis EthR (setting [2]), the “SPR Inhibition (%)” value amounted to 28%.
